Source: patent US10202371B2, “Oxazolidin-2-one-pyrimidine derivatives and the use thereof as phosphatidylinositol-3-kinase inhibitors” (Novartis AG, priority 2012, dated 2019)

Each compound was assayed against human PI3Kdelta p110 catalytic subunit (Rat-1 cells) (Homo sapiens (Human), UniProt O00329) (assay: Cellular assay PI3Kdelta, p-Akt(S473) SureFire in Rat-1_PI3Kdelta cells). Conditions: p-AKT(Ser473), 1 h treatment; read-out: Rat1-PI3Kd/IC50.
Assay type: cell-based
Text: AlphaScreen (Amplified Luminescent Proximity Homogeneous Assay, ALPHA, Perkin Elmer) is a non-radioactive bead-based proximity assay technology to study biomolecular interactions in a homogenous microtiter plate format. The brand name SureFire denotes AlphaScreen assays that are adapted to quantify the phosphorylation of endogenous cellular proteins in cell lysates, by using matched antibody pairs, which consist of an anti-phospho-kinase and an anti-kinase antibody. The assay allows characterization of kinase signaling in cells as well as measurement of kinase inhibitor effects. The AlphaScreen technology provides several advantages over standard assay techniques such as ELISA, as it avoids time-consuming washing procedures and reduces plate handling. Furthermore, it is miniaturizable at least to a 384-well format and provides sensitivity down to the femtomolar range, dependent on the affinity of the antibodies included in the individual AlphaScreen SureFire assay kit. High sensitivity is reached by an intrinsic amplification mechanism, which involves production of singlet oxygen molecules. SureFire assay kits are commercially available for specific targets and include pairs of validated antibodies (PerkinElmer). This report describes common procedures applied for AlphaScreen SureFire assays and respective semi-automated steps for routine kinase inhibitor profiling in cell-based assays.
The Rat-1 cell lines stably overexpressing activated PI3K class I isoforms Rat-1 pBABEpuro Myr-HA-hp110 delta (Rat-1_PI3Kdelta) and Rat-1 pBABEpuro Myr-HA-hp110alpha (Rat-1_PI3Kalpha) and Rat-1 pBABEpuro Myr-HA-hp110 beta (Rat-1_PI3beta) were prepared as described (Maira S M, Stauffer F, Brueggen J, Furet P, Schnell C, Fritsch C, Brachmann S, Chène P, de Pover A, Schoemaker K, Fabbro D, Gabriel D, Simonen M, Murphy L, Finan P, Sellers W, Garcia-Echeverria C (2008), Mol Cancer Ther. 7:1851-63 and Maira S M, Pecchi S, Brueggen J, Huh K, Schnell C, Fritsch C, Nagel T, Wiesmann M, Brachmann S, Dorsch M, Chène P, Schoemaker K, De Pover A, Menezes D, Fabbro D, Sellers W, Garcia-Echeverria C, Voliva CF (2011), Mol. Cancer Ther., accepted). All cell lines were cultivated in complete growth medium (DMEM high glucose, 10% (v/v) fetal bovine serum, 1% (v/v) MEM NEAA, 10 mM HEPES, 2 mM L-glutamine, puromycin (10 μg/mL for Rat-1_PI3Kdelta and Rat-1_PI3Kalpha, 4 ug/mL for Rat-1_PI3beta), 1% (v/v) Pen/Strep) to 90% confluency at 37° C./5% CO2/90% humidity in a humidified CO2 incubator and were split twice a week.
The following materials were used for p-AKT(5473) detection in Rat-1 cell lysates: Dulbecco's modified Eagle's medium (DMEM) high glucose (Gibco Invitrogen, Basel, Switzerland, Cat. No. 41965), Heat Inactivated Fetal Bovine Serum, Qualified (HI FBS; Gibco Invitrogen, Basel, Switzerland, Lot. No. 16140), MEM non essential amino acids (NEAA; Gibco Invitrogen, Basel, Switzerland, Cat. No. 11140), HEPES (Gibco Invitrogen, Basel, Switzerland, Cat. No. 15630), Penicillin/Streptomycin (Pen/Strep, 100x; Gibco Invitrogen, Basel, Switzerland, Cat. No. 15140-122), L-Glutamine (Gibco Invitrogen, Basel, Switzerland, Cat. No. 25030), Puromycin (Sigma Aldrich, Buchs, Switzerland, Cat. No. P9620), DMSO (MERCK, Dietikon, Switzerland, Cat. No. 8.02912.2500), H2O, MilliQ-H2O unless otherwise stated (MILLIPORE QGARDOOR1, Millipore, Zug, Switzerland), Bovine serum albumine (BSA; Sigma Aldrich, Buchs, Switzerland Cat. No. A8412), SureFire p-Akt ½ (Ser473) Assay Kit (PerkinElmer, Schwerzenbach, Switzerland, Cat. No. TGRAS50K).
The p-Akt(5473) SureFire assay measures the phosphorylation of endogenous cellular Akt ½ at Ser473 in cell lysates. Using Rat-1 cells stably expressing myr-HA-tagged versions of the human PI3Kdelta, PI3Kalpha, or PI3Kbeta p110 catalytic subunit isoforms, the assay was developed as a two-plate protocol in a 384-well format.

Chain of human PI3Kdelta p110 catalytic subunit (Rat-1 cells) (O00329 whole entry): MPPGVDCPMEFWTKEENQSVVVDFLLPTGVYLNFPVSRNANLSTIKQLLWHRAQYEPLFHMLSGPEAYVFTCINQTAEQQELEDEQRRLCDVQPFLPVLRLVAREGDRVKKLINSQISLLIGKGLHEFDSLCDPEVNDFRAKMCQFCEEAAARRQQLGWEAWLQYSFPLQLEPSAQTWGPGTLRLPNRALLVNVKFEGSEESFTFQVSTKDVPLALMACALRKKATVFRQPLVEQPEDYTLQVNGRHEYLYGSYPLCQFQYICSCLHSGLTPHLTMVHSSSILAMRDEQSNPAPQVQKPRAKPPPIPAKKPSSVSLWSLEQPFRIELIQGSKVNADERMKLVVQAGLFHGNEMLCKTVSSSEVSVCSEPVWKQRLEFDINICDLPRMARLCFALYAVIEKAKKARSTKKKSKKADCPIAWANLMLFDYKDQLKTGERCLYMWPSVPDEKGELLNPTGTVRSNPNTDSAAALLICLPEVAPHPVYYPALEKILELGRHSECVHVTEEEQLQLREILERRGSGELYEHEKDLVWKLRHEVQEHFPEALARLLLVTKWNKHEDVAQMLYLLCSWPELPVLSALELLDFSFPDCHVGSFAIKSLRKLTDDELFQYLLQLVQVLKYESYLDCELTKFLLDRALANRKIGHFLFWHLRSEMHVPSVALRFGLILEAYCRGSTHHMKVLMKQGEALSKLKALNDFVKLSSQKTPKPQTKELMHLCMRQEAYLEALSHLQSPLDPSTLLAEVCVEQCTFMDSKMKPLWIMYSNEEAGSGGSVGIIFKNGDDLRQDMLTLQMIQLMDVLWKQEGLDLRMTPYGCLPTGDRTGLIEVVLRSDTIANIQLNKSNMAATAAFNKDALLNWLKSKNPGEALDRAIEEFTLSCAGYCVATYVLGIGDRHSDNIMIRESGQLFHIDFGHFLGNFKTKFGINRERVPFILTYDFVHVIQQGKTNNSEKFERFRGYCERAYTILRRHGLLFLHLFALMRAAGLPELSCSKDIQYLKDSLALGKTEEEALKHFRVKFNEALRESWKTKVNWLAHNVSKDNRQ
Chain of human PI3Kdelta p110 catalytic subunit (Rat-1 cells) (Q63787 whole entry partner): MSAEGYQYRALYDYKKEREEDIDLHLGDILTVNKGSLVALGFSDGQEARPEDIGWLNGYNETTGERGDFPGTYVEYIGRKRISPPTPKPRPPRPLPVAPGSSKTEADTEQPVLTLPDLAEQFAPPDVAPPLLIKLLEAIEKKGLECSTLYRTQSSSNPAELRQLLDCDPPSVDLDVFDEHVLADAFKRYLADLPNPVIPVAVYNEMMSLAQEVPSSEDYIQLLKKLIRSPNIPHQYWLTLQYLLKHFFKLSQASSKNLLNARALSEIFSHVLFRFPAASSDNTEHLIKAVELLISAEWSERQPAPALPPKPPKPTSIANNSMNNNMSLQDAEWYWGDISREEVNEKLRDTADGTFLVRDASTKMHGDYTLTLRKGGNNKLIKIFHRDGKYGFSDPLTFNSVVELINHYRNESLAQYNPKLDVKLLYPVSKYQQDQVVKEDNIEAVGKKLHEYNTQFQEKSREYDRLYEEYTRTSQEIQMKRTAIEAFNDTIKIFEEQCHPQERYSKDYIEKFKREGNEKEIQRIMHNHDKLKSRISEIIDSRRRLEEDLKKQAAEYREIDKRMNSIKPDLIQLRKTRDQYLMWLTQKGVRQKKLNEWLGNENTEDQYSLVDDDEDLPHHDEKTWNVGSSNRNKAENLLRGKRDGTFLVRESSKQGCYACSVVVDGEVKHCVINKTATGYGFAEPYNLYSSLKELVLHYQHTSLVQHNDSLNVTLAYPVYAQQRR

Row | Structure (SMILES) | IC50
1 | COCCOc1ccc([C@@H]2OC(=O)N(c3cc(-c4cnc(N)nc4C(F)(F)F)nc(N4CCOCC4)n3)[C@H]2CO)cc1 [Example 12] | 4 nM
2 | COc1ccc([C@@H]2OC(=O)N(c3cc(-c4cnc(N)nc4C(F)(F)F)nc(N4CCOCC4)n3)[C@H]2CO)cc1 [Example 3, (4S,5S)-3-(2′-Amino-2-morpholino-4′-(trifluoromethyl)-[4,5′-bipyrimidin]-6-yl)-4-(hydroxymethyl)-5-(4-methoxyphenyl)oxazolidin-2-one] | 6 nM
3 | C[C@H]1[C@H](c2ccccc2)OC(=O)N1c1cc(-c2cnc(N)nc2C(F)(F)F)nc(N2CCOCC2)n1 [Example 5] | 119 nM
4 | Nc1ncc(-c2cc(N3C(=O)O[C@@H](c4ccccc4)[C@@H]3CO)nc(N3CCOCC3)n2)c(C(F)(F)F)n1 [Example 10] | 22 nM
5 | CC[C@H]1[C@H](c2nccs2)OC(=O)N1c1cc(-c2cnc(N)nc2C(F)(F)F)nc(N2CCOCC2)n1 [Example 7] | 123 nM
6 | CC1C(c2cccnc2)OC(=O)N1c1cc(-c2cnc(N)nc2C(F)(F)F)nc(N2CCOCC2)n1 (stereo not drawn) [Example 9] | 11 nM
